Data as given in ChEMBL document CHEMBL1201862, “PubChem BioAssay data set” (2004).
Activity calls are given as the source filed them.

What was measured:
[1] = biological target: Serine/threonine-protein phosphatase PP1-alpha catalytic subunit (Homo sapiens, UniProt P62136); test: PP1 phosphatase inhibitors, dose response, biochemical, fluorescence (AID 2394)
[2] = biological target: T1, Serine/threonine-protein phosphatase (Homo sapiens, UniProt Q9BPW0); test: PP5 phosphatase inhibitors, dose response, biochemical, fluorescence (AID 2395)
T1 sequence (Q9BPW0 whole entry): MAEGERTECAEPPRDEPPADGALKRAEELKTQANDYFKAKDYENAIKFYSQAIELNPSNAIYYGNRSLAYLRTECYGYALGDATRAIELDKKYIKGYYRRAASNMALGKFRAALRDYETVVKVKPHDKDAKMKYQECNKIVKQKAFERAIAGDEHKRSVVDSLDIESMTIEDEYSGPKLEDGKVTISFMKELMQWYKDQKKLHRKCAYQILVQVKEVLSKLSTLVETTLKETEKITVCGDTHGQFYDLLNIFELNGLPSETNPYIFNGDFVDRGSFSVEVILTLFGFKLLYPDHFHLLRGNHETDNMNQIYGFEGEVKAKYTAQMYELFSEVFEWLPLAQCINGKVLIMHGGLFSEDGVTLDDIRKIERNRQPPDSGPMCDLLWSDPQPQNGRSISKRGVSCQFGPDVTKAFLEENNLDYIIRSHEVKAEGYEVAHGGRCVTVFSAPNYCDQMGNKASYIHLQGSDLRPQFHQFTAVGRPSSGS

[3] = biological target: T2, Replicative DNA helicase DnaB (Mycobacterium tuberculosis, UniProt P9WMR3); test: DnaB intein splicing inhibitors, dose response, biochemical, cell-free fluorescence (AID 449749); format: functional
T2 sequence (P9WMR3 whole entry): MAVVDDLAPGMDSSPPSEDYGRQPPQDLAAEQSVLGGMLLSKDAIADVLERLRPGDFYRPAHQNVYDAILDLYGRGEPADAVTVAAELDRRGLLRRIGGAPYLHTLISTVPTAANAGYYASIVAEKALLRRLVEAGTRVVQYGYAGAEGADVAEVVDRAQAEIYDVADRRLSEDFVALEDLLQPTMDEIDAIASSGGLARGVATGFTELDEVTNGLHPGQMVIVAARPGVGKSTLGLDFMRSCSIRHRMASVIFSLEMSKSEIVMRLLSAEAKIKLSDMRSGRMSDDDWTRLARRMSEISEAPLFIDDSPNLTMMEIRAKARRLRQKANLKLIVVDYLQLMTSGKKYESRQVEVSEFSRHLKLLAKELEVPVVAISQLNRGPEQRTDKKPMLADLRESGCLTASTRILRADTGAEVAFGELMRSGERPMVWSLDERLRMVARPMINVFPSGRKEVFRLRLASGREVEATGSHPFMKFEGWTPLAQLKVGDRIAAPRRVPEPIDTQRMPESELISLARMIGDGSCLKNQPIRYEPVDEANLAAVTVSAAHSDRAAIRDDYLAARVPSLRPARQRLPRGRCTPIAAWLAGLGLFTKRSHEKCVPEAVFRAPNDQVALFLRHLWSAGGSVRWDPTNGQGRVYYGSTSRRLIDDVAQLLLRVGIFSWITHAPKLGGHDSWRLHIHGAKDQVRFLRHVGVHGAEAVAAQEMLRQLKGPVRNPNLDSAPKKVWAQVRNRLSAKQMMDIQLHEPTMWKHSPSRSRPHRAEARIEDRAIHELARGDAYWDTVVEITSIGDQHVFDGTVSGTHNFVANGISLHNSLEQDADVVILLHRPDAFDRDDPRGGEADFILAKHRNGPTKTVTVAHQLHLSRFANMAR

[4] = biological target: T3, High affinity choline transporter 1 (Homo sapiens, UniProt Q9GZV3); test: CHT inhibitors, dose response, cell-based, 5-point CRC, membrane potential dye (AID 504840); format: functional
T3 sequence (Q9GZV3 whole entry): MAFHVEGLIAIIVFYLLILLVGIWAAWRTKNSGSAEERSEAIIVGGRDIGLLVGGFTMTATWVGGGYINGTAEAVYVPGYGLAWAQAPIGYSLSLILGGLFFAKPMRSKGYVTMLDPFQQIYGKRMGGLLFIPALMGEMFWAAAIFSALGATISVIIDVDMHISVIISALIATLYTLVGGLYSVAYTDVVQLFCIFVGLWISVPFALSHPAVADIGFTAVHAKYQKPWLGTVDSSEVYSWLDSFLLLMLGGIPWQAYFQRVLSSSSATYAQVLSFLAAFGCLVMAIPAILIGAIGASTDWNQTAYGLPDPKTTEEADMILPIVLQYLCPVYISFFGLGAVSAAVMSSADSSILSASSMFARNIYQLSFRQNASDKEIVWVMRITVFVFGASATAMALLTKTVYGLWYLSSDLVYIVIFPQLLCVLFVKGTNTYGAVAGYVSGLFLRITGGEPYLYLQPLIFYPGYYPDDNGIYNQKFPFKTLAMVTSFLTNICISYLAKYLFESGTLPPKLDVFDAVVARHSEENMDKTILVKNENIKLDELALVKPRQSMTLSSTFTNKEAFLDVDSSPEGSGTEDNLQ

Protein RecA = biological target: T4, Protein RecA (Mycobacterium tuberculosis, UniProt P9WHJ3); test: Fluorescence Cell-Free Homogeneous Dose Retest to Identify Inhibitors of RecA-Intein Splicing Activity. [Related pubchem assays (depositor defined):AID2097, AID2223, AID489010, AID492950]; format: functional
T4 sequence (P9WHJ3 whole entry): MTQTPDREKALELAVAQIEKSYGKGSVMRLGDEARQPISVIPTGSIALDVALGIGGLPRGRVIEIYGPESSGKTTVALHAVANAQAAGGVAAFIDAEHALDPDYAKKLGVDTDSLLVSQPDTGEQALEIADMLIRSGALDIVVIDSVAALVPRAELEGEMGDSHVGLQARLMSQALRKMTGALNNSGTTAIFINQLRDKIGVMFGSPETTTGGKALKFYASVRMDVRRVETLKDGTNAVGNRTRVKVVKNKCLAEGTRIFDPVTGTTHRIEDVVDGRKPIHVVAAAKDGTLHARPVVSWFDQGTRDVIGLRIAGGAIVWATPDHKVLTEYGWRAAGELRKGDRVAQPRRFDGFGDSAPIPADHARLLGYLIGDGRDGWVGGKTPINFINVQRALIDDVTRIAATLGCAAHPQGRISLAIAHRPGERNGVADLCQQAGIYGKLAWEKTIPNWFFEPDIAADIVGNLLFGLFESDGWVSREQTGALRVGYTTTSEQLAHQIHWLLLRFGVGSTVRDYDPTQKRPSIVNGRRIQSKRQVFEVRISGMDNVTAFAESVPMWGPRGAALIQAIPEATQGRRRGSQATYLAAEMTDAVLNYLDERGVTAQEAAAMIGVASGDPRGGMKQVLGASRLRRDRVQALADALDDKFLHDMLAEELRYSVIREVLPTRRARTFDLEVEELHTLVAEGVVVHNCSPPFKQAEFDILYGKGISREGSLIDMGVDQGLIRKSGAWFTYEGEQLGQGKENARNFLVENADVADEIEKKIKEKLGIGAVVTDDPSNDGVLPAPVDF

[5] = biological target: T3, High affinity choline transporter 1; test: CHT inhibitors, dose response, cell-based, 10-point CRC, membrane potential dye (AID 588401); format: functional;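 note: membrane potential dye fluorescence of choline-evoked depolarization via CHT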
Genome polyprotein = Genome polyprotein (dengue virus type 2, UniProt P29990); test: Dengue-2 NS5 methyltransferase inhibitors, primary screen, biochemical, confirmation dose response (AID 588689); format: functional
Fatty acid synthase [6] = biological target: T5, Fatty acid synthase (Homo sapiens, UniProt P49327); test: FAS thioesterase domain inhibitors, dose response, biochemical, endpoint fluorescence intensity, uHTS hits (AID 624327); format: functional;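 note: fluorescence from hydrolysis of an O-methyl fluorescein acyl ester substrate by the enzyme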
Fatty acid synthase [7] = biological target: T5, Fatty acid synthase; test: FAS thioesterase domain inhibitors, dose response, biochemical, kinetic fluorescence intensity (AID 624326); format: functional;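 note: rate of fluorescence rise from hydrolysis of a fluorogenic O-methyl fluorescein ester substrate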

T5 sequence (P49327 whole entry, the tested form may be a part): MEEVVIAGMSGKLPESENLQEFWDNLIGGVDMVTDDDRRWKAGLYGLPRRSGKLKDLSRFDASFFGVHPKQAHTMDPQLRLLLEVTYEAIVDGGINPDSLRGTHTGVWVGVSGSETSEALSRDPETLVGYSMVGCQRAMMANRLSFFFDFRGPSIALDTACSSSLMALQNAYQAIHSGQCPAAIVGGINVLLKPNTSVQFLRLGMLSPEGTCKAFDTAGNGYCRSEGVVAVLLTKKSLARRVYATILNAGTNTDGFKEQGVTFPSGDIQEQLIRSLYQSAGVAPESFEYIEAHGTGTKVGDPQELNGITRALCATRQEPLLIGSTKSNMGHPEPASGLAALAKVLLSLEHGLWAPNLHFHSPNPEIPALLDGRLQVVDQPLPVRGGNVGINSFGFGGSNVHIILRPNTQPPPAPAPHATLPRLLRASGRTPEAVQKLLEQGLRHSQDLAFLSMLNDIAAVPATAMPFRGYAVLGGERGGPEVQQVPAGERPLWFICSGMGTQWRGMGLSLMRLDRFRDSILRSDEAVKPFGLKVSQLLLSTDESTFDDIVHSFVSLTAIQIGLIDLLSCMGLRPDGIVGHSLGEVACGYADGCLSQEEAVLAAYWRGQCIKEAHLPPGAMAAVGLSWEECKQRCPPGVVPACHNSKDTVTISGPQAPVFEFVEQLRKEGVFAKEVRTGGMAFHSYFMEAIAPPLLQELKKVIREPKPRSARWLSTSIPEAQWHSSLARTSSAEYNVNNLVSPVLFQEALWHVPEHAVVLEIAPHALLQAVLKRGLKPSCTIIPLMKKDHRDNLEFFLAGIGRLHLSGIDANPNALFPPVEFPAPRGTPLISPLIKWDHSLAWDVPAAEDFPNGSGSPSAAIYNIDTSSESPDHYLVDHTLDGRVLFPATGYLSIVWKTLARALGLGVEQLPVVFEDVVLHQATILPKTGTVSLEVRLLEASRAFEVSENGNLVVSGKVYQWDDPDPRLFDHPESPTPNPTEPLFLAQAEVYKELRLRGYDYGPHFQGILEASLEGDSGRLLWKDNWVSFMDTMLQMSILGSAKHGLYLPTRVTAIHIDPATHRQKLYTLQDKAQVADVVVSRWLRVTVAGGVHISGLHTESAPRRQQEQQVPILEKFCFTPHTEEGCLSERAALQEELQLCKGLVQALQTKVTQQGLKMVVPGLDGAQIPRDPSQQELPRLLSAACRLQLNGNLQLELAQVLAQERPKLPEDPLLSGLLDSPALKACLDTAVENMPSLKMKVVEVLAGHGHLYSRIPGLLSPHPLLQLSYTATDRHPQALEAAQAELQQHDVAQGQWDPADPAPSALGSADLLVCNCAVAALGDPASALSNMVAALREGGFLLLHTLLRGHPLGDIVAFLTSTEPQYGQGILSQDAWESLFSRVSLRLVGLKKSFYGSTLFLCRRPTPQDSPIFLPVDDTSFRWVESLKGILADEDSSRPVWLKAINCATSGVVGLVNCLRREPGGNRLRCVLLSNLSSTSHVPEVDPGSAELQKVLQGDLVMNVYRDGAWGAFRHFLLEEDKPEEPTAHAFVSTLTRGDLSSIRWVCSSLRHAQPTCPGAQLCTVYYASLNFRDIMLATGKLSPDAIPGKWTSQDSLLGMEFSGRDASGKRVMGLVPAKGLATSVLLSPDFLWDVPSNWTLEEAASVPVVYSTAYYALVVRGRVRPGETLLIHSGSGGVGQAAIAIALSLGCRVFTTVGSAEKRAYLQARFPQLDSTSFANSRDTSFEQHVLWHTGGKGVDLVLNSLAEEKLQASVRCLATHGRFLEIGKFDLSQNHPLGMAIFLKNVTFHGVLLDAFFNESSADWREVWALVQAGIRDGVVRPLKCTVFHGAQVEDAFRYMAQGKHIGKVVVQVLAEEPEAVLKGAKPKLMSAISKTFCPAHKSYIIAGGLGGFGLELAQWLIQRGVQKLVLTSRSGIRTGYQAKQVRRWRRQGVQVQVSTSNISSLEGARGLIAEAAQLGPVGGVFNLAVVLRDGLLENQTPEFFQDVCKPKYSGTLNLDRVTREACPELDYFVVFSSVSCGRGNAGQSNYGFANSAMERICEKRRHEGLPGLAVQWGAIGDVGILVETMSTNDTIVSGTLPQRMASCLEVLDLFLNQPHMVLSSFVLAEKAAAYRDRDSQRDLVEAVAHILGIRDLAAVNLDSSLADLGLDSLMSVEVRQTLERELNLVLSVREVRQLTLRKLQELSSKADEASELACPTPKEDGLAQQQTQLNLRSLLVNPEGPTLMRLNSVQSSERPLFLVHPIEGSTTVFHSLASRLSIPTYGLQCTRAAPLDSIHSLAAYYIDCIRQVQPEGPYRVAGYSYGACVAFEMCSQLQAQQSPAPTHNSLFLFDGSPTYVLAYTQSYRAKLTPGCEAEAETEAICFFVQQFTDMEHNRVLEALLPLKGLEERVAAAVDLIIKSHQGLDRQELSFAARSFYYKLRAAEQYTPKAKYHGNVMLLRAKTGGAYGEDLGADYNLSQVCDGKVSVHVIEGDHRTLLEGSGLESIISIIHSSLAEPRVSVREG
Genome polyprotein, sequence (P29990 2492-3391 limits assumed): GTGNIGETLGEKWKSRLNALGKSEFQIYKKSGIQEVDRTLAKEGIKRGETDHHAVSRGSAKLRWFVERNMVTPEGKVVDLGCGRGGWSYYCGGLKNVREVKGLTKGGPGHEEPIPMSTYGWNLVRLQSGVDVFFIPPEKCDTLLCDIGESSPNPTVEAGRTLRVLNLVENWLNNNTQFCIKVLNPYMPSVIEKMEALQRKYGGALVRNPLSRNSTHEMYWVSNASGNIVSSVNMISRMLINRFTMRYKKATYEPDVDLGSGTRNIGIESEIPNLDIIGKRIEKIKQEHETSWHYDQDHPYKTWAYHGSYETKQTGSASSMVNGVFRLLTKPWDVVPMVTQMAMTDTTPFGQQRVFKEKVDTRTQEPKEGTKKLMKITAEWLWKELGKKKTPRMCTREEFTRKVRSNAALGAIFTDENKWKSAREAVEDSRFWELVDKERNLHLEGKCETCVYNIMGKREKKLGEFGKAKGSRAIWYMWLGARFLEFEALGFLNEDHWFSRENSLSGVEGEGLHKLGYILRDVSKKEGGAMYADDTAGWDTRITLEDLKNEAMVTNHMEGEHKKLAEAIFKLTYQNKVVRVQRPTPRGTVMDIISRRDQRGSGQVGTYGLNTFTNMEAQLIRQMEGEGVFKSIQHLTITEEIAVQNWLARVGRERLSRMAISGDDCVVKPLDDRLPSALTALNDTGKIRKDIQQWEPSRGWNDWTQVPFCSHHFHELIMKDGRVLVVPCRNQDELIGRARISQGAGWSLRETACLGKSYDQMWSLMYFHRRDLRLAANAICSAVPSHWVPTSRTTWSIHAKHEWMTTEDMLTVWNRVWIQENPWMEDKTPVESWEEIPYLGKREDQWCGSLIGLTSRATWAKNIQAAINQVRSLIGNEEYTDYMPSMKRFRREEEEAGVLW
Serine/threonine-protein phosphatase PP1-alpha catalytic subunit, sequence (P62136 whole entry): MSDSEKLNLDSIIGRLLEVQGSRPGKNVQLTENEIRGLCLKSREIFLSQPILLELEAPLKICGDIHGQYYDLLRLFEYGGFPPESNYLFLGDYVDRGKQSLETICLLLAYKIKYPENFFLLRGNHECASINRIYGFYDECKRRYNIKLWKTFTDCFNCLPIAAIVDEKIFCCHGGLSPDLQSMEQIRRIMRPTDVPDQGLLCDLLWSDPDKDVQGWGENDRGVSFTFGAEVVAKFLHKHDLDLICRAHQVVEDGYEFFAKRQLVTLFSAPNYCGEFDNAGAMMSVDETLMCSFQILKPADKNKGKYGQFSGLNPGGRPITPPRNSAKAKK

Structure (SMILES): Cc1[nH]n(-c2ccccc2)c(=O)c1C(c1ccc([N+](=O)[O-])cc1)c1c(C)[nH]n(-c2ccccc2)c1=O
- IC50 [1]: 29.9 µM (not active)
- IC50 [2]: 9.57 µM (active)
- AC50 [3]: 1.24 µM (active)
- IC50 [4]: 10.3 µM (active)
- EC50 (Protein RecA): 0.39 µM (active)
- IC50 [5]: 2.82 µM (active)
- IC50 (Genome polyprotein): 33.2 µM (active)
- IC50 (Fatty acid synthase [6]): 3.19 µM (active)
- IC50 (Fatty acid synthase [7]): 5.6 µM (active)
